Assay results published in ChEMBL document CHEMBL4765232 (J Med Chem, 2016).

Columns and labels:
[1] = Fraction unbound in Beagle dog plasma; type: ADME, cell-free, Canis lupus familiaris
[2] = Toxicity in Beagle dog at 50 to 500 mg/kg, po BID administered via gavage […] for 28 days; type: organism-based, Canis lupus familiaris; conditions: in vivo, 672 h, dose 50-500 mg/kg, time 28 day
[3] = Cmax in Sprague-Dawley rat at 25 mg/kg, po; type: ADME, organism-based; design: route oral, dose 25 mg/kg; conditions: in vivo
[4] = Protein binding in rat plasma assessed as bound fraction; type: ADME, cell-free; conditions: read-out: PPB (converted)
[5] = Cmax in Beagle dog at 5 mg/kg, po; type: ADME, organism-based, Canis lupus familiaris; design: route oral, dose 5 mg/kg; conditions: in vivo
[6] = Half life in Sprague-Dawley rat plasma at 1 mg/kg, iv; type: ADME, organism-based
[7] = Clearance in Sprague-Dawley rat at 1 mg/kg, iv; type: ADME, organism-based; conditions: in vivo
[8] = Unbound AUC in Beagle dog at 5 mg/kg, po; type: ADME, organism-based, Canis lupus familiaris; conditions: in vivo
[9] = Unbound clearance in Sprague-Dawley rat at 1 mg/kg, iv; type: ADME, organism-based; conditions: in vivo
[10] = AUC (0 to infinity) in Beagle dog at 5 mg/kg, po; type: ADME, organism-based, Canis lupus familiaris; design: route oral, time infinity, dose 5 mg/kg; conditions: in vivo
Cytochrome P450 1A2 = target: T1, Cytochrome P450 1A2 (Homo sapiens, UniProt P05177); experiment: Time dependent inhibition of CYP1A2 (unknown origin); type: ADME
T1 sequence (P05177 whole entry): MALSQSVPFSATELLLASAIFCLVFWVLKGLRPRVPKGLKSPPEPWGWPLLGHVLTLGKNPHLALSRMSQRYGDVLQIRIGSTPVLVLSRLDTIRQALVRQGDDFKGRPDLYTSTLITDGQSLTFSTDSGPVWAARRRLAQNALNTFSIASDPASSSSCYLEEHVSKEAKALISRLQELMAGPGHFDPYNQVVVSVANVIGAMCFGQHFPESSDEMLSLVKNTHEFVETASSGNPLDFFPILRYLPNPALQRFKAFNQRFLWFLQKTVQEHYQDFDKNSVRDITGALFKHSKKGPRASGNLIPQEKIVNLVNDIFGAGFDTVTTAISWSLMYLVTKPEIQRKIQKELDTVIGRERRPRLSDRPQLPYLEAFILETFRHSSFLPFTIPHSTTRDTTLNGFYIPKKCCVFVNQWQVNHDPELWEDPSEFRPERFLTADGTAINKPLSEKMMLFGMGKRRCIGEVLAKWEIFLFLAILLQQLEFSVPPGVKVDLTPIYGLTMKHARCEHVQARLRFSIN

CYP1A2 = target: T2, CYP1A2 (Homo sapiens, UniProt P05177); experiment: Inhibition of CYP1A2 (unknown origin) at 10 uM relative to control; type: ADME
T2 sequence (P05177 whole entry): T1 sequence (P05177 whole entry)

[11] = Intrinsic clearance in rat liver microsomes assessed per mg protein; type: ADME, Microsome
Cytochrome P450 2C9 = Cytochrome P450 2C9 (Homo sapiens, UniProt P11712); experiment: Time dependent inhibition of CYP2C9 (unknown origin); type: ADME
[12] = Protein binding in mouse plasma assessed as bound fraction; type: ADME, cell-free
[13] = Oral bioavailability in Balb/c mouse at 100 mg/kg formulated in 0.5 % methyl cellulose maintained at pH 3 to 4; type: ADME, organism-based; conditions: in vivo, pH 3, 100 mg/kg
[14] = Clearance in Beagle dog at 1 mg/kg, iv relative to liver blood flow; type: ADME, organism-based, Canis lupus familiaris; conditions: in vivo
KARPAS-422 = experiment: Antitumor activity against human KARPAS-422 cells harboring EZH2 Y641N mutant xenografted in CB17 SCID mouse assessed as tumor growth inhibition at 160 mg/kg, po BID administered for 25 days and measured post-treatment by caliper method relative to control; type: functional; conditions: KARPAS-422, po, 600 h, time 25 day, read-out: TGI
[15] = Cmax in Balb/c mouse at 100 mg/kg, po formulated in 0.5 % methyl cellulose maintained at pH 3 to 4; type: ADME, organism-based; design: route oral, dose 100 mg/kg; conditions: in vivo, pH 3, 100 mg/kg
[16] = target: T3, Histone-lysine N-methyltransferase EZH1 (Homo sapiens, UniProt Q92800)
T3 sequence (Q92800 whole entry): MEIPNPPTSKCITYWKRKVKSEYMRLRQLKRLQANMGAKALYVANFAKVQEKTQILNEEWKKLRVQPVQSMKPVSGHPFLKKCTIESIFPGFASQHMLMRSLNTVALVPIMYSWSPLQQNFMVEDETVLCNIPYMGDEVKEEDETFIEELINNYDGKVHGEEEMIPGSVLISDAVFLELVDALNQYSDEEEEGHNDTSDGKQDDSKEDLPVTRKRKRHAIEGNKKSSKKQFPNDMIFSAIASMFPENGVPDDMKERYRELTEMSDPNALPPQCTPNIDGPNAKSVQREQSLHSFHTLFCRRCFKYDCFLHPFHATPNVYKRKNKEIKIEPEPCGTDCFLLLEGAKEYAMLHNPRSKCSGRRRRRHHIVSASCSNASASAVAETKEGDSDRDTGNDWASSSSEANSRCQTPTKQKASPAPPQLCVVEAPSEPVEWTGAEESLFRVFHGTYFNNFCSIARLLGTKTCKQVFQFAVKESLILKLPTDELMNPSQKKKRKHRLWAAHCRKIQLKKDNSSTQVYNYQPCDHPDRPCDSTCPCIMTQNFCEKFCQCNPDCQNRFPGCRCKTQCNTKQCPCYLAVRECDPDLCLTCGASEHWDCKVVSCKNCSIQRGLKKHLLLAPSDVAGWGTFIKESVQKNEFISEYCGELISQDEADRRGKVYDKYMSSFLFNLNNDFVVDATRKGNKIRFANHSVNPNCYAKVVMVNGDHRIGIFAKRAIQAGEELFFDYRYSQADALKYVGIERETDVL
Description: Inhibition of EZH1 (unknown origin)

[17] = Unbound AUC in Sprague-Dawley rat at 25 mg/kg, po; type: ADME, organism-based; conditions: in vivo
[18] = AUC (0 to infinity) in Balb/c mouse at 100 mg/kg, po formulated in 0.5 % methyl cellulose maintained at pH 3 to 4; type: ADME, organism-based; design: time infinity, route oral, dose 100 mg/kg; conditions: in vivo, pH 3, 100 mg/kg
[19] = Clearance in Balb/c mouse at 1 mg/kg, iv formulated with 5:60:35 DMA/PEG400/20% SBECD; type: ADME, organism-based; conditions: in vivo
[20] = Drug concentration in tumor of CB17 SCID mouse xenografted with human KARPAS-422 cells at 160 mg/kg, po BID administered for 17 days and measured up to 12 hrs post last dose by LC-MS analysis; type: ADME, organism-based, Neoplasm; conditions: time 17 day, read-out: Ct

Sequence of Cytochrome P450 2C9 (P11712 whole entry): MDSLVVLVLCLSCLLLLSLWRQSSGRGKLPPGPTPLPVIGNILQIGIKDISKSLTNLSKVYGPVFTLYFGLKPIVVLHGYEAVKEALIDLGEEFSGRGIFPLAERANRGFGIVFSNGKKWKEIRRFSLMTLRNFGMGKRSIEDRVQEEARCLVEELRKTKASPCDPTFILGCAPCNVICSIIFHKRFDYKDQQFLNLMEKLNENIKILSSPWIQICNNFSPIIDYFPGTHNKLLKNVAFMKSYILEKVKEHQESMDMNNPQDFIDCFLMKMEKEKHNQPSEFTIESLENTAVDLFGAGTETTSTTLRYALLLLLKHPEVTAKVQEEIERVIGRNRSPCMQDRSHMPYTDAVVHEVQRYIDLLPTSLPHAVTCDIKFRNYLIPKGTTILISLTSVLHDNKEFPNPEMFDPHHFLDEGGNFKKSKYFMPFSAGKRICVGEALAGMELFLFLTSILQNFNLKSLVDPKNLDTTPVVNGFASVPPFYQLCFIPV

With `COc1cc(C)[nH]c(=O)c1CNC(=O)c1c(C)n([C@H](C)C2CCN(CC(F)(F)F)CC2)c2ccccc12` [CPI-1205] the Fu [1] was 0.021%, the Activity [2] was “Non-Toxic” and the Cmax [3] was 5.88 µM. For the same compound, the fraction unbound [4] was 0.101, the Cmax [5] was 1.24 µM and the half-life [6] was 39.2 min. For the same compound, the clearance [7] was 53.2 mL/min/kg, the fAUC [8] was 0.309 µM·h and the CL free [9] was 527 mL/min/kg. For the same compound, the AUC(0-inf) [10] was 3.19 µM·h, the TDI (Cytochrome P450 1A2) was “Not Active” and the inhibition at 10 µM (CYP1A2) was 15%. The CLH [11] was 99.6 µL/min, the TDI (Cytochrome P450 2C9) was “Not Active” and the PPB [12] was 97.9%. It also gave an F [13] of 100%, a CL [14] of 76% and an inhibition in vivo at 160 mg/kg (KARPAS-422) of over 97%. The Cmax [15] was 67.4 µM, the IC50 [16] was 52 nM and the fAUC [17] was 0.713 µM·h. For the same compound, the AUC [18] was 88.88 µM·h, the clearance [19] was 36 mL/min/kg and the concentration at 408 h [20] was 5290 ng/g.
